Experimental data from PubChem BioAssay AID256 (DTP/NCI, 2004).
“And” between values parts separate entries of the source, which are not always exact repeats. Equal values may be shown once. Toxic doses and inconclusive results are not listed. Rule for the calls: active = survival T/C of 150% or more; inactive = T/C below 125% in these data.

System: CD2F1 mice, L1210 leukemia ip, survival T/C
Test: NCI In Vivo Anticancer Drug Screen. Data for tumor model L1210 Leukemia (intraperitoneal) in CD2F1 (CDF1) mice
Details: endpoint: mean survival time, higher = longer survival
Summary of the method: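 Mice carrying a transplanted tumor received test compound or vehicle alone. The value is the measurement in the treated group divided by that in the vehicle-treated control group.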

[1] = dose: 100.0 mg/kg/injection, schedule: Q01DX009 (ip), vehicle: saline with Tween-80
[2] = dose: 100.0 mg/kg/injection, schedule: Q04DX003 (ip), vehicle: saline with Tween-80
[3] = dose: 200.0 mg/kg/injection, schedule: Q01DX009 (ip), vehicle: saline with Tween-80
[4] = dose: 200.0 mg/kg/injection, schedule: Q04DX003 (ip), vehicle: saline with Tween-80
[5] = dose: 400.0 mg/kg/injection, schedule: Q01DX009 (ip), vehicle: saline with Tween-80
[6] = dose: 400.0 mg/kg/injection, schedule: Q04DX003 (ip), vehicle: saline with Tween-80
[7] = dose: 100.0 mg/kg/injection, schedule: Q01DX001 (ip), vehicle: saline
[8] = dose: 200.0 mg/kg/injection, schedule: Q01DX001 (ip), vehicle: saline
[9] = dose: 400.0 mg/kg/injection, schedule: Q01DX001 (ip), vehicle: saline
[10] = dose: 25.0 mg/kg/injection, schedule: Q01DX009 (ip), vehicle: saline with Tween-80

Measured: T/C

CNS(=O)(=O)c1ccc2c(c1)[nH]c(=S)n2C
inactive: [1] 97 % of control | [2] 96 % of control | [3] 93 % of control | [4] 92 % of control | [5] 93 % of control | [6] 90 % of control

N=C1N(c2ccc(C(=O)NC(CCC(=O)O)C(=O)O)cc2)CC2CNc3nc(N)[nH]c(=O)c3N12 (stereo unspecified)
inactive: [7] 100 % of control | [8] 93 % of control | [9] 104 % of control

CN1C(/C(C(=O)C(F)(F)F)=C(\O)C(F)(F)F)=NCc2ccccc21
inactive: dose: 100.0 mg/kg/injection, schedule: Q04DX003 (ip), vehicle: Klucel (hydroxypropylcellulose) (HPC) 102 % of control | dose: 200.0 mg/kg/injection, schedule: Q04DX003 (ip), vehicle: Klucel (hydroxypropylcellulose) (HPC) 98 % of control | dose: 400.0 mg/kg/injection, schedule: Q04DX003 (ip), vehicle: Klucel (hydroxypropylcellulose) (HPC) 98 % of control

Cc1c(C)c(O)c(Br)c(C)c1O (tested in a mixture with another compound)
inactive: dose: 25.0 mg/kg/injection, schedule: Q04DX003 (ip), vehicle: other 100 % of control | dose: 50.0 mg/kg/injection, schedule: Q04DX003 (ip), vehicle: other 94 % of control

CCOC(=O)c1c(C)cc(C)cc1C
inactive: dose: 50.0 mg/kg/injection, schedule: Q01DX001 (ip), vehicle: Klucel (hydroxypropylcellulose) (HPC) 99 % of control | dose: 100.0 mg/kg/injection, schedule: Q01DX001 (ip), vehicle: Klucel (hydroxypropylcellulose) (HPC) 102 % of control | dose: 200.0 mg/kg/injection, schedule: Q01DX001 (ip), vehicle: Klucel (hydroxypropylcellulose) (HPC) 96 % of control

C=C1OC(n2cnc3c(N)ncnc32)C(O)C1O (stereo unspecified)
inactive: [7] 98 % of control | [8] 101 % of control | [9] 98 % of control

N#Cc1cnn(-c2ccc([N+](=O)[O-])cc2)c1N
inactive: [2] 111 % of control | [4] 100 % of control | [6] 100 % of control

CCCCn1cnc2c(SSc3ncnc4c3ncn4CCCC)ncnc21
inactive: [2] 116 % of control and 106 % of control | [4] 113 % of control | dose: 264.0 mg/kg/injection, schedule: Q04DX003 (ip), vehicle: saline with Tween-80 97 % of control | dose: 300.0 mg/kg/injection, schedule: Q04DX003 (ip), vehicle: saline with Tween-80 120 % of control | [6] 122 % of control and 111 % of control | dose: 600.0 mg/kg/injection, schedule: Q04DX003 (ip), vehicle: saline with Tween-80 97 % of control

CC(C)OC(=O)CC#N
inactive: [2] 96 % of control | [4] 105 % of control | [6] 96 % of control

CN(C)CC1CN(C)CC(CN(C)C)C1(O)C(C(=O)N(C)C)c1ccccc1 (stereo unspecified)
inactive: dose: 75.0 mg/kg/injection, schedule: Q01DX001 (ip), vehicle: other 98 % of control | dose: 150.0 mg/kg/injection, schedule: Q01DX001 (ip), vehicle: other 100 % of control | dose: 300.0 mg/kg/injection, schedule: Q01DX001 (ip), vehicle: other 98 % of control

OC(C=C(C(F)(F)F)C(F)(F)F)c1cccs1 (stereo unspecified)
inactive: [1] 95 % of control

[Cl][Pt+2][Cl].[NH-]c1nc(-c2ccccc2)cs1.[NH-]c1nc(-c2ccccc2)cs1
inactive: dose: 3.13 mg/kg/injection, schedule: Q04DX003 (ip), vehicle: distilled water + Tween-80 101 % of control | dose: 6.25 mg/kg/injection, schedule: Q04DX003 (ip), vehicle: distilled water + Tween-80 101 % of control | dose: 12.5 mg/kg/injection, schedule: Q04DX003 (ip), vehicle: distilled water + Tween-80 96 % of control | dose: 25.0 mg/kg/injection, schedule: Q04DX003 (ip), vehicle: distilled water + Tween-80 102 % of control | dose: 50.0 mg/kg/injection, schedule: Q04DX003 (ip), vehicle: distilled water + Tween-80 96 % of control | dose: 100.0 mg/kg/injection, schedule: Q04DX003 (ip), vehicle: distilled water + Tween-80 98 % of control | dose: 200.0 mg/kg/injection, schedule: Q04DX003 (ip), vehicle: distilled water + Tween-80 98 % of control

O=C(O)C[N-]c1ccccc1.O=C(O)C[N-]c1ccccc1.[Ni+2]
inactive: [10] 95 % of control | dose: 50.0 mg/kg/injection, schedule: Q04DX003 (ip), vehicle: saline with Tween-80 107 % of control | [2] 106 % of control

COc1cc(C=Nc2ccc(-n3ccnc3C)cc2)ccc1N(CCCl)CCCl
inactive: dose: 2.5 mg/kg/injection, schedule: Q01DX009 (ip), vehicle: saline with Tween-80 98 % of control | dose: 5.0 mg/kg/injection, schedule: Q01DX009 (ip), vehicle: saline with Tween-80 113 % of control | dose: 10.0 mg/kg/injection, schedule: Q01DX009 (ip), vehicle: saline with Tween-80 112 % of control | dose: 20.0 mg/kg/injection, schedule: Q01DX009 (ip), vehicle: saline with Tween-80 117 % of control

CCCCC(CCCC)c1ccccn1
inactive: dose: 6.25 mg/kg/injection, schedule: Q01DX009 (ip), vehicle: saline with Tween-80 91 % of control | dose: 12.5 mg/kg/injection, schedule: Q01DX009 (ip), vehicle: saline with Tween-80 96 % of control | [10] 96 % of control

CN(Cc1cnc2nc(N)nc(N)c2n1)c1ccc(C(=O)N[C@@H](CCC(=O)O)C(N)=O)cc1
inactive: dose: 3.0 mg/kg/injection, schedule: Q01DX009 (ip), vehicle: sodium bicarbonate 98 % of control | dose: 6.0 mg/kg/injection, schedule: Q01DX009 (ip), vehicle: sodium bicarbonate 100 % of control | dose: 12.0 mg/kg/injection, schedule: Q01DX009 (ip), vehicle: sodium bicarbonate 111 % of control | dose: 50.0 mg/kg/injection, schedule: Q01DX009 (ip), vehicle: sodium bicarbonate 114 % of control

COc1ccc(C(=CC2=CC(=O)C3=C(CCCC3)C2=O)c2ccc(OC)cc2)cc1
inactive: dose: 100.0 mg/kg/injection, schedule: Q04DX003 (ip), vehicle: saline sonified 96 % of control | dose: 200.0 mg/kg/injection, schedule: Q04DX003 (ip), vehicle: saline sonified 100 % of control | dose: 400.0 mg/kg/injection, schedule: Q04DX003 (ip), vehicle: saline sonified 97 % of control

O=C(OC1CCCCC1c1ccccc1)c1ccc([N+](=O)[O-])cc1 (stereo unspecified)
inactive: [2] 90 % of control | [4] 98 % of control | [6] 90 % of control

O=c1[nH]c(=O)n(C2CC(O)C(CO)O2)cc1CN1CCCC1 (stereo unspecified)
inactive: dose: 6.25 mg/kg/injection, schedule: Q01DX005 (ip), vehicle: water 95 % of control | dose: 12.5 mg/kg/injection, schedule: Q01DX005 (ip), vehicle: water 109 % of control | dose: 25.0 mg/kg/injection, schedule: Q01DX005 (ip), vehicle: water 87 % of control | dose: 50.0 mg/kg/injection, schedule: Q01DX005 (ip), vehicle: water 102 % of control | dose: 100.0 mg/kg/injection, schedule: Q01DX005 (ip), vehicle: water 102 % of control | dose: 200.0 mg/kg/injection, schedule: Q01DX005 (ip), vehicle: water 96 % of control | dose: 400.0 mg/kg/injection, schedule: Q01DX005 (ip), vehicle: water 96 % of control

CCN1CCS/C1=C\C=C\C1=[N+](CC)CCS1
inactive: dose: 1.25 mg/kg/injection, schedule: Q01DX001 (ip), vehicle: other 98 % of control | dose: 2.5 mg/kg/injection, schedule: Q01DX001 (ip), vehicle: other 101 % of control

CC(=O)C1=C(C)NC(C)=C(C(C)=O)C1c1cccc([N+](=O)[O-])c1
inactive: [2] 94 % of control | [4] 91 % of control | [6] 96 % of control

O=C(OC1CC2CCC1C2Cl)c1ccc2ccccc2c1 (stereo unspecified)
inactive: dose: 100.0 mg/kg/injection, schedule: Q01DX001 (ip), vehicle: saline with Tween-80 93 % of control | [1] 91 % of control | dose: 200.0 mg/kg/injection, schedule: Q01DX001 (ip), vehicle: saline with Tween-80 89 % of control | [3] 93 % of control | dose: 400.0 mg/kg/injection, schedule: Q01DX001 (ip), vehicle: saline with Tween-80 95 % of control | [5] 95 % of control
